These results are taken from patent publication US10028961B2, “Therapeutically active compounds and their methods of use” (AGIOS PHARMACEUTICALS, INC., priority 2013, dated 2018).

The target of test [1] is IDH1-R132 homodimer enzyme (R132H) (Homo sapiens (Human), UniProt O75874, R132H). The experiment in a line: In vitro assay IDH1-R132H homodimer, NADPH depletion assay. The class given is biochemical. The method, then:
(§1) The following describes the experimental procedures that can be used to obtain data on columns 3 and 6 of Table 4.
(§2) A test compound is prepared as 10 mM stock in DMSO and diluted to 50× final concentration in DMSO, for a 50 μl reaction mixture. IDH enzyme activity converting alpha-ketoglutarate to 2-hydroxyglutaric acid is measured using a NADPH depletion assay. In the assay the remaining cofactor is measured at the end of the reaction with the addition of a catalytic excess of diaphorase and resazurin, to generate a fluorescent signal in proportion to the amount of NADPH remaining. […] The reaction is started with the addition of 10 μl of Substrate Mix ([…], 5 mM alpha-ketoglutarate, in Assay Buffer) and the mixture is incubated for 90 minutes at room temperature.

In the next test the target is IDH1 R132C (Homo sapiens (Human), UniProt O75874, R132C). In words: In vitro assay IDH1 R132C homodimer, NADPH depletion assay. The class given is biochemical. The method, then:
as §1, §2
The concentration of NADPH and alpha-ketoglutarate in the Substrate Buffer is 20 μM and 1 mM, respectively.

The target of test [2] is IDH1-R132H homodimer enzyme (Homo sapiens (Human), UniProt O75874, R132H). The experiment in a line: In vitro assay IDH1-R132H homodimer, NADPH depletion assay with NADPH/NADP preincubation. The class given is biochemical. Particulars: 5 μM NADPH and 37.5 μM NADP. In a few lines:
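Conversion of alpha-ketoglutarate to 2-hydroxyglutarate tracked by NADPH depletion. Reaction started with 5 mM alpha-ketoglutarate plus NADPH substrate mix (50 μl total), 60 min at room temperature. Leftover NADPH quantified via diaphorase/resazurin fluorescence.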

The test system of test [3] is U87MG pLVX-IDH2 R140Q-neo cells. The experiment in a line: U87MG pLVX-IDH2 R140Q-neo cell based assay, 2-HG by LC-MS. Particulars: Homo sapiens, U-87 MG.

Chain of IDH1-R132 homodimer enzyme (R132H) (O75874 whole entry R132H): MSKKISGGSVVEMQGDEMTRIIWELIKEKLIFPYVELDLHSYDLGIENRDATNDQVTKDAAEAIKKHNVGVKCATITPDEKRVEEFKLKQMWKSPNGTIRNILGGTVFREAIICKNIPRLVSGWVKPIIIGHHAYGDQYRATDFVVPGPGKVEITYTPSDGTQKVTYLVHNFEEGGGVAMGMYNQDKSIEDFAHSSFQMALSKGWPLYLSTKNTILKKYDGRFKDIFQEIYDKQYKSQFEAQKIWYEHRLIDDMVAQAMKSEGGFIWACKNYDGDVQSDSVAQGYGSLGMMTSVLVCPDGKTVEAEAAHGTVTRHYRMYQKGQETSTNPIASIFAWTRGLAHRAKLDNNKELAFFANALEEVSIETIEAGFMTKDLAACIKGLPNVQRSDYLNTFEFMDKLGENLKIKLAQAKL
Chain of IDH1 R132C (O75874 whole entry R132C): as the sequence (O75874 whole entry R132H) above, with H132C counted along it
Chain of IDH1-R132H homodimer enzyme (O75874 whole entry R132H): as the sequence (O75874 whole entry R132H) above

Usually IC50 stands for the concentration needed to halve the response being measured. Low values mean greater potency in that assay, high ones weaker potency in that assay. Turning to `CC(C#N)Nc1nc(N[C@H](C)C2CC2)nc(-c2cccc(C(F)(F)F)n2)n1` (some centres unmarked) [Compound 40], the IC50 (in test [1]; at IDH1 R132C) was 50 to 100 nM throughout.

As to `C[C@@H](Nc1nc(N[C@H](C)C2CC2)nc(-c2cccc(C(F)(F)F)n2)n1)C(=O)N(C)C` [Compound 48], the IC50 in test [1] is greater than 1000 nM. In addition, on IDH1 R132C, the “IDH1 R132C IC50” value was “No Fit”.

Consider `CCN(CC)c1nc(N[C@H](C)C2CC2)nc(-c2cccc(Cl)n2)n1` [Compound 46], for which the IC50 (in test [1]; against IDH1 R132C) was greater than 1000 nM in each case.

As for `COc1ccc(F)c(-c2nc(NC(C)C)nc(NC(C)(C)C#N)n2)c1` [Compound 32], the IC50 (in test [1]; at IDH1 R132C) was greater than 1000 nM in each case.

Take `C[C@@H](Nc1nc(NCc2ccccn2)nc(-c2cccc(C(F)(F)F)n2)n1)C1CC1` [Compound 24, (R)-N^2-(1-cyclopropylethyl)-N^4-(pyridin-2-ylmethyl)-6-(6-(trifluoro-methyl)pyridin-2-yl)-1,3,5-triazine-2,4-diamine]: the IC50 (in test [1]; against IDH1 R132C) was greater than 1000 nM in each case.

For `FC(F)(F)c1cccc(-c2nc(NCC3CC3)cc(NCC3CC3)n2)n1` [Compound 419], the IC50 in test [1] was greater than 1000 nM; in test [2] it was 100 to 1000 nM; in test [3], 100 to 1000 nM.

With `CC(C)(CO)Nc1nc(Nc2ccnc(C(C)(F)F)c2)nc(-c2cccc(C(F)(F)F)n2)n1` [Compound 49], the IC50 (in test [1]; against IDH1 R132C) was greater than 1000 nM each time.

Regarding `CC(Nc1nc(N[C@H](C)C2CC2)nc(-c2cccc(C(F)(F)F)n2)n1)c1ccccn1` (stereo partly drawn) [Compound 25, N^2-((R)-1-cyclopropylethyl)-N^4-(1-(pyridin-2-yl)ethyl)-6-(6-(trifluoromethyl)pyridin-2-yl)-1,3,5-triazine-2,4-diamine], the IC50 (in test [1]; at IDH1 R132C) was greater than 1000 nM each time.

As for `C[C@@H](Nc1nc(N[C@H](C)C2CC2)nc(-c2ccccc2F)n1)C1CC1` [Compound 6], the IC50 is greater than 1000 nM in test [1] and 100 to 1000 nM on IDH1 R132C.

On to `C[C@@H](Nc1nc(N[C@H]2CCC[C@H]2O)nc(-c2cccc(C(F)(F)F)n2)n1)C1CC1` [Compound 43], for which the IC50 in test [1] was 100 to 1000 nM; at IDH1 R132C, greater than 1000 nM.

For the compound `C[C@@H](Nc1nc(NC(C)(C)C#N)nc(-c2cccc(C(F)(F)F)n2)n1)C1CC1` [Compound 37], the IC50 in test [1] was 50 to 100 nM; against IDH1 R132C, greater than 1000 nM.

As to `C[C@@H](Nc1nc(N[C@@H]2C[C@H]2c2ccccc2)nc(-c2cccc(C(F)(F)F)n2)n1)C1CC1` [Compound 23], the IC50 (in test [1]; on IDH1 R132C) was 50 to 100 nM throughout.

Regarding `FC1(F)CCC(Nc2nc(NC3CCC(F)(F)CC3)nc(-c3cccc(C(F)(F)F)n3)n2)CC1` [Compound 41], the IC50 in test [1] is 50 to 100 nM; on IDH1 R132C, greater than 1000 nM.

Take `C[C@@H](Nc1nc(NC(=O)c2ccccc2)nc(-c2cccc(C(F)(F)F)n2)n1)C1CC1` [Compound 29]: the IC50 was 100 to 1000 nM in test [1] and greater than 1000 nM on IDH1 R132C.

As to `C[C@@H](Nc1nc(N[C@H](C)C2CC2)nc(-c2cccc(Cl)n2)n1)C1CC1` [Compound 45], the values for the 50% inhibitory concentration (IC50) (in test [1]; against IDH1 R132C) were less than 50 nM and 50 to 100 nM, respectively.

In test [1], `C[C@@H](Nc1nc(N[C@H](C)C2CC2)nc(-c2cccc(C(F)(F)F)n2)n1)C(=O)O` [Compound 47] returned an IC50 greater than 1000 nM. Moreover, the “IDH1 R132C IC50” value on IDH1 R132C is on record as “No Fit”.

For the compound `CC(C)Nc1nc(NC(C)(C)C#N)nc(-c2cc(O)ccc2F)n1` [Compound 35], the IC50 (in test [1]; on IDH1 R132C) was greater than 1000 nM each time.

Take `COCC(C)Nc1nc(N[C@H](C)C2CC2)nc(-c2cccc(C(F)(F)F)n2)n1` (some centres unmarked) [Compound 44]: the IC50 was 100 to 1000 nM in test [1] and greater than 1000 nM against IDH1 R132C.

Take `CC(C)Nc1nc(NC(C)C)nc(-c2cccc(C(F)(F)F)n2)n1` [Compound 3]: the IC50 in test [1] lay within 100 to 1000 nM; against IDH1 R132C it was 50 to 100 nM.

For the compound `C[C@@H](Nc1nc(N[C@H](C)C2CC2)nc(-c2cccc(N3CCC3)n2)n1)C1CC1` [Compound 51], the IC50 (in test [1]; against IDH1 R132C) was greater than 1000 nM each time.
